Source: PubChem BioAssay AID1963869 (Molecular Pharmacology Branch, DTP, NCI, 2024)
pIC50: −log10 of the molar value.

System: KRAS patient-derived spheroids with HUVEC/MSC, viability
Assay: Anticancer human tumor 323965-272-R-J2-PDC patient-derived pancreatic carcinoma cell line growth inhibition [KRAS2]
Settings: for pIC50: curve of first compound; for viability, T/C: stronger effect = lower value; for IC50: compound alone
Summary of the method: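 KRAS-mutant tumor cells were grown as spheroids with HUVEC endothelial cells and human MSCs as stroma. Targeted agents were tested alone and with KRAS pathway inhibitors. Doses started at or near clinical Cmax, or 10 microM, descending half-log.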

[1] = second compound 0.1 µM, first compound 0.0316 µM
[2] = second compound 0.1 µM, first compound 0.1 µM
[3] = second compound 0.1 µM, first compound 0.316 µM
[4] = second compound 0.1 µM, first compound 1 µM
[5] = second compound 0.1 µM, first compound 3.16 µM
[6] = second compound 0.316 µM, first compound 0.0316 µM
[7] = second compound 0.316 µM, first compound 0.1 µM
[8] = second compound 0.316 µM, first compound 0.316 µM
[9] = second compound 0.316 µM, first compound 1 µM
[10] = second compound 0.316 µM, first compound 3.16 µM
[11] = second compound 1 µM, first compound 0.0316 µM
[12] = second compound 1 µM, first compound 0.1 µM
[13] = second compound 1 µM, first compound 0.316 µM
[14] = second compound 1 µM, first compound 1 µM
[15] = second compound 1 µM, first compound 3.16 µM
[16] = second compound 3.16 µM, first compound 0.0316 µM
[17] = second compound 3.16 µM, first compound 0.1 µM
[18] = second compound 3.16 µM, first compound 0.316 µM
[19] = second compound 3.16 µM, first compound 1 µM
[20] = second compound 3.16 µM, first compound 3.16 µM
[21] = second compound 10 µM, first compound 0.0316 µM
[22] = second compound 10 µM, first compound 0.1 µM
[23] = second compound 10 µM, first compound 0.316 µM
[24] = second compound 10 µM, first compound 1 µM
[25] = second compound 10 µM, first compound 3.16 µM
[26] = second compound 0.1 µM, first compound 0.01 µM
[27] = second compound 0.316 µM, first compound 0.01 µM
[28] = second compound 1 µM, first compound 0.01 µM
[29] = second compound 3.16 µM, first compound 0.01 µM
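Also: spheroids exposed to agents for 7 days.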
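For viability, T/C in this document: 100% = DMSO vehicle control viability.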

SMILES	pIC50 (second compound 0.1 µM)	pIC50 (second compound 0.316 µM)	pIC50 (second compound 1 µM)	pIC50 (second compound 3.16 µM)	viability, T/C [1] [%]	viability, T/C [2] [%]	viability, T/C [3] [%]	viability, T/C [4] [%]	viability, T/C [5] [%]	viability, T/C [6] [%]	viability, T/C [7] [%]	viability, T/C [8] [%]	viability, T/C [9] [%]	viability, T/C [10] [%]	viability, T/C [11] [%]	viability, T/C [12] [%]	viability, T/C [13] [%]	viability, T/C [14] [%]	viability, T/C [15] [%]	viability, T/C [16] [%]	also measured
O=C(c1cc(Cc2n[nH]c(=O)c3ccccc23)ccc1F)N1CCN(C(=O)C2CC2)CC1 + CNCc1ccccc1-c1csc(C(C)Nc2nc(C)nc3cc(OC)c(OC)cc23)c1	< 5.00	< 5.00	< 5.00	5.05	98.7	93.1	97.8	93.6	89	94.9	91	98.4	89.7	86.2	92	93.5	84.5	86.3	83.3	102	pIC50 (second compound 10 µM): > 7.50; viability, T/C (second compound 0.1 µM, first compound 10 µM): 57.1%; viability, T/C (second compound 0.316 µM, first compound 10 µM): 51.5%; viability, T/C (second compound 1 µM, first compound 10 µM): 52.9%; viability, T/C [17]: 102%; viability, T/C [18]: 96.4%; viability, T/C [19]: 98.8%; viability, T/C [20]: 92.5%; viability, T/C (second compound 3.16 µM, first compound 10 µM): 44.8%; viability, T/C [21]: 6.59%; viability, T/C [22]: 0.4%; viability, T/C [23]: 2.23%; viability, T/C [24]: 0.39%; viability, T/C [25]: 0.34%; viability, T/C (second compound 10 µM, first compound 10 µM): 0.82%
CC(=O)OC12COC1CC(O)C1(C)C(=O)C(O)C3=C(C)C(OC(=O)C(O)C(NC(=O)OC(C)(C)C)c4ccccc4)CC(O)(C(OC(=O)c4ccccc4)C21)C3(C)C (centres undefined) + C=CC(=O)N1CCN(c2nc(OCC3CCCN3C)nc3c2CCN(c2cccc4cccc(C)c24)C3)CC1CC#N	> 8.00	> 8.00	> 8.00	> 8.00	22.9	18.7	20.7	20.7	21.2	21.1	19.7	17.9	30.9	21.3	17.4	18.2	16	17.1	17.2	31.1	pIC50 (second compound 0.0316 µM): > 8.00; viability, T/C (second compound 0.0316 µM, first compound 0.01 µM): 25.4%; viability, T/C (second compound 0.0316 µM, first compound 0.0316 µM): 23.9%; viability, T/C (second compound 0.0316 µM, first compound 0.1 µM): 22.6%; viability, T/C (second compound 0.0316 µM, first compound 0.316 µM): 23.2%; viability, T/C (second compound 0.0316 µM, first compound 1 µM): 22.9%; viability, T/C (second compound 0.0316 µM, first compound 3.16 µM): 23.6%; viability, T/C [26]: 21.5%; viability, T/C [27]: 20.1%; viability, T/C [28]: 19.4%; viability, T/C [29]: 31.7%; viability, T/C [17]: 26.5%; viability, T/C [18]: 24.8%; viability, T/C [19]: 27.7%; viability, T/C [20]: 31.2%
CNCc1ccccc1-c1csc(C(C)Nc2nc(C)nc3cc(OC)c(OC)cc23)c1 (centres undefined)	–	–	–	–	–	–	–	–	–	–	–	–	–	–	–	–	–	–	–	–	viability, T/C (compound 0.316 µM): 89.6% [middle of 16 runs]; viability, T/C (compound 1 µM): 89.2% [middle of 16 runs]; IC50 (run of 08/26/2021): 5.39 µM [middle of 4 runs]; IC50 (run of 09/02/2021): 4.96 µM [middle of 6 runs]
CC1COCCN1c1cc(-c2ccnn2C)c2ccnc(-c3ccn[nH]3)c2n1 (centres undefined) + CC1OCC2(CCN(c3cnc(Sc4ccnc(N)c4Cl)c(N)n3)CC2)C1N	7.82	> 8.00	> 8.00	> 8.00	32.2	17.7	15	13.5	12.9	23.2	12.3	10.7	10.5	9.88	13	7.36	6.29	5.53	3.23	7.07	pIC50 (second compound 10 µM): > 8.00; viability, T/C [26]: 60.7%; viability, T/C [27]: 43.1%; viability, T/C [28]: 35.1%; viability, T/C [29]: 13.3%; viability, T/C [17]: 4.72%; viability, T/C [18]: 4.25%; viability, T/C [19]: 2.21%; viability, T/C [20]: 2.21%; viability, T/C (second compound 10 µM, first compound 0.01 µM): 7.99%; viability, T/C [21]: 5.12%; viability, T/C [22]: 4.05%; viability, T/C [23]: 3.27%; viability, T/C [24]: 1.9%; viability, T/C [25]: 1.31%
